Test results published in patent publication US11999727B2 (Tango Therapeutics, Inc., priority 2020, dated 2024).

Key:
[1] = test system: HAP1 MTAP-intact cell line; assay: SDMA in-cell western assay, HAP1 MTAP-intact; format: cell-based; settings: Homo sapiens, HAP1, SDMA in-cell western, HAP1 MTAP-intact; read-out: MTAP HAP1 intact IC50
In short: (§1)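 Compounds were tested in HAP1 cells differing only in MTAP status (endogenous expression versus null). Cellular SDMA levels were then measured by in-cell western, giving an IC50 in each background.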

[2] = test system: HAP1 MTAP-deleted cell line; assay: SDMA in-cell western assay, HAP1 MTAP-deleted; format: cell-based; settings: for IC50: Homo sapiens, HAP1, SDMA in-cell western, HAP1 MTAP-deleted, read-out: HAP 1 MTAP deleted IC50; for MTAP intact/deleted ratio: IC50 ratio HAP1 MTAP-intact / HAP1 MTAP-deleted, SDMA in-cell western
In short: as §1

PRMT5 [3] = molecular target: T1, PRMT5 (Homo sapiens, UniProt O14744); assay: PRMT5 biochemical IC50 assay with SAM as cofactor; settings: PRMT5, SAM as cofactor; read-out: SAM IC50
T1 construct: purchased Viva (custom protein)

PRMT5 [4] = molecular target: T1, PRMT5; assay: PRMT5 biochemical IC50 assay with no cofactor; settings: PRMT5, no cofactor; read-out: No Cofactor/ rel IC50
Source text: Table 1 indicates IC50 values (μM) against PRMT5 for exemplary compounds in the presence of SAM as cofactor, with no cofactor, and with MTA as cofactor, respectively (columns 4-6). […] Ki values can be calculated from the IC50 values as described in the Examples section. As detailed in the Examples section, for the assay performed in the presence of SAM, IC50=Ki×1.5 (Ki=IC50/1.5).

PRMT5 [5] = molecular target: T1, PRMT5; assay: PRMT5 biochemical IC50 assay with MTA as cofactor; settings: PRMT5, MTA as cofactor; read-out: MTA IC50
[6] = test system: HAP1 MTAP-deleted cell line; assay: Viability assay, MTAP-deleted cell line; format: cell-based; settings: Homo sapiens, HAP1, viability, HAP1 MTAP-deleted cell line; read-out: HAP1 MTAP deleted viability
Source text: Table 1 additionally indicates IC50 values in a viability assay for the MTAP-deleted cell line (column 10), indicating the effect of treatment with compound on cell survival.

T1 sequence (O14744 whole entry): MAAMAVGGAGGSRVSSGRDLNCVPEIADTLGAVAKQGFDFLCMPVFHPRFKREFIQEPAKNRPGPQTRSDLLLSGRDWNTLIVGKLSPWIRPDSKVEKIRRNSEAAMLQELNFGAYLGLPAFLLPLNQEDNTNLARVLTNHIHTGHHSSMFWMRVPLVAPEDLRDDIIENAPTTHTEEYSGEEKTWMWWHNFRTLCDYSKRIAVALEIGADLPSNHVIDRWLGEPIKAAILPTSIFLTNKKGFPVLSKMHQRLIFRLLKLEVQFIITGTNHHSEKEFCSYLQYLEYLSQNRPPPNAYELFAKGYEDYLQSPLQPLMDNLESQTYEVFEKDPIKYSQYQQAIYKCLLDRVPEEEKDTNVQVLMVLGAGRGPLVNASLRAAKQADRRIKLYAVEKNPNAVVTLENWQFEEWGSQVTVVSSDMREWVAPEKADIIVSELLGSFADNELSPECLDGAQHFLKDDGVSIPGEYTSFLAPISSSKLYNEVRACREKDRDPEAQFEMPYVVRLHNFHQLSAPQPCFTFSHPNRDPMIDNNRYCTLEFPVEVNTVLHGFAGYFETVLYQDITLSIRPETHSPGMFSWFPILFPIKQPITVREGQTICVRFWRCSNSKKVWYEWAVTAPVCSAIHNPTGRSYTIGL
T1 sequence (Q9BQA1 whole entry partner): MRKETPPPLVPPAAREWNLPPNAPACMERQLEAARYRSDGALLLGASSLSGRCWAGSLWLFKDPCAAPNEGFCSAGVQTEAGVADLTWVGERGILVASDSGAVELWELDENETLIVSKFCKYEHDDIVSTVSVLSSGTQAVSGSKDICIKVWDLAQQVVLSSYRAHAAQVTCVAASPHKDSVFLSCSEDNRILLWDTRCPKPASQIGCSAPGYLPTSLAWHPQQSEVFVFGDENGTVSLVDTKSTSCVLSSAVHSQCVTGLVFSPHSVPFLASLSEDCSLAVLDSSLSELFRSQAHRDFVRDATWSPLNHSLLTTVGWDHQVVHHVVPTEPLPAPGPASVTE

IC50 [1] [µM]	IC50 [2] [µM]	IC50 (PRMT5 [3]) [µM]	IC50 (PRMT5 [4]) [µM]	IC50 (PRMT5 [5]) [µM]	Compound	MTAP intact/deleted ratio [2]	IC50 [6] [µM]
< 0.1	< 0.1	0.05 to 0.5	< 0.05	< 0.05	C[C@H]1CC[C@H](c2ccc3sc(C4CCN(C)CC4)nc3c2)N(C(=O)C(=O)Nc2cncc(C(N)=O)c2)C1 (single isomer, unassigned) [Compound 1255]	A (an IC50 ratio greater than or equal to 10 fold)	< 1
0.1 to 1	< 0.1	0.05 to 0.5	< 0.05	< 0.05	C[C@H]1CCC(c2ccc3sc(C4CCOCC4)nc3c2)N(C(=O)C(=O)Nc2cnc(N)c(C3CC3)c2)C1 (single isomer, unassigned) [Compound 1258]	A (an IC50 ratio greater than or equal to 10 fold)	< 1
0.1 to 1	< 0.1	0.05 to 0.5	> 0.5	< 0.05	CCc1cc(NC(=O)C(=O)N2C[C@@H](C)CC[C@@H]2c2ccc(N3CCN(C)[C@H](C)C3)nc2)cnc1N (single isomer, unassigned) [Compound 1263]	A (an IC50 ratio greater than or equal to 10 fold)	< 1
> 1	0.1 to 1	> 0.5	> 0.5	0.05 to 0.5	CCc1cc(NC(=O)C(=O)N2C[C@H](C)CC[C@H]2c2ccc(N3CCC4(CCCN(C)C4)CC3)cc2)cnc1N (single isomer, unassigned) [Compound 1269]	–	1 to 10
0.1 to 1	< 0.1	0.05 to 0.5	0.05 to 0.5	< 0.05	CCc1cc(NC(=O)C(=O)N2C[C@@H](C)CC[C@@H]2c2ccc3nn([C@@H]4CCCN(C)C4)cc3c2)cnc1N (single isomer, unassigned) [Compound 1270]	A (an IC50 ratio greater than or equal to 10 fold)	< 1
< 0.1	< 0.1	0.05 to 0.5	< 0.05	< 0.05	CCc1cc(NC(=O)C(=O)N2C[C@@H](C)CC[C@@H]2c2ccc3nn([C@H]4CCCN(C)C4)cc3c2)cnc1N (single isomer, unassigned) [Compound 1271]	B (an IC50 ratio greater than or equal to 3 fold but lower than 10 fold)	< 1
0.1 to 1	< 0.1	0.05 to 0.5	< 0.05	< 0.05	CCc1cc(NC(=O)C(=O)N2C[C@@H](C)CC[C@@H]2c2cccc(C[C@H]3CCCCN3C)c2)cnc1N (single isomer, unassigned) [Compound 1273]	A (an IC50 ratio greater than or equal to 10 fold)	< 1
> 1	> 1	> 0.5	> 0.5	> 0.5	Cc1cc(NC(=O)C(=O)N2C[C@@H](C)[C@H](CC(C)C)C[C@@H]2c2ccc3scnc3c2)cnc1N (single isomer, unassigned) [Compound 1284]	–	> 10
0.1 to 1	< 0.1	0.05 to 0.5	< 0.05	< 0.05	CCc1cc(NC(=O)C(=O)N2C[C@@H](C)[C@@H](OC)C[C@@H]2c2ccc3scnc3c2)cnc1N (single isomer, unassigned) [Compound 1286]	A (an IC50 ratio greater than or equal to 10 fold)	< 1
0.1 to 1	< 0.1	0.05 to 0.5	< 0.05	< 0.05	CCc1cc(NC(=O)C(=O)N2C[C@@H](C)CC[C@@H]2c2ccc(N3CCN(C)[C@@H](C)C3)nc2)cnc1N (single isomer, unassigned) [Compound 1289]	A (an IC50 ratio greater than or equal to 10 fold)	< 1
> 1	0.1 to 1	> 0.5	> 0.5	> 0.5	Cc1cc(NC(=O)C(=O)N2C[C@H](C)CC[C@H]2c2cccc(C3CCN(C)CC3)c2)cnc1N (single isomer, unassigned) [Compound 1291]	–	> 10
> 1	> 1	> 0.5	> 0.5	> 0.5	Cc1cc(NC(=O)C(=O)N2C[C@@H](C)[C@@H](OC(C)C)C[C@@H]2c2ccccc2)cnc1N (single isomer, unassigned) [Compound 1302]	–	> 10
> 1	< 0.1	> 0.5	0.05 to 0.5	0.05 to 0.5	C[C@@H]1CN(C(=O)C(=O)Nc2cnc(N)c(C3CC3)c2)[C@@H](c2ccc3scnc3c2)CC1(F)F (single isomer, unassigned) [Compound 1307]	A (an IC50 ratio greater than or equal to 10 fold)	< 1
< 0.1	< 0.1	0.05 to 0.5	< 0.05	< 0.05	CCc1cc(NC(=O)C(=O)N2C[C@@H](C)CC[C@@H]2c2ccc3sc([C@@H]4CCN(C)C4)nc3c2)cnc1N (single isomer, unassigned) [Compound 1308]	A (an IC50 ratio greater than or equal to 10 fold)	< 1
< 0.1	< 0.1	0.05 to 0.5	< 0.05	< 0.05	Cc1cc(NC(=O)C(=O)N2C[C@@H](C)CC[C@@H]2c2ccc3sc(-c4cccnc4)nc3c2)cnc1N (single isomer, unassigned) [Compound 1310]	A (an IC50 ratio greater than or equal to 10 fold)	< 1
< 0.1	< 0.1	< 0.05	< 0.05	< 0.05	CCc1cc(NC(=O)C(=O)N2C[C@@H](C)CC[C@@H]2c2ccc3sc([C@H]4CCN(C)C4)nc3c2)cnc1N (single isomer, unassigned) [Compound 1311]	A (an IC50 ratio greater than or equal to 10 fold)	< 1
> 1	< 0.1	< 0.05	< 0.05	< 0.05	C[C@H]1CC[C@H](c2ccc3sc(C4CCN(C)CC4)nc3c2)N(C(=O)C(=O)Nc2cnc(N)c([C@H]3CCOC3)c2)C1 (single isomer, unassigned) [Compound 1312]	–	< 1
0.1 to 1	< 0.1	0.05 to 0.5	< 0.05	< 0.05	Cc1nc2cc([C@H]3CC[C@H](C)CN3C(=O)C(=O)Nc3cnc(N)c(C4CC4)c3)ccc2s1 (single isomer, unassigned) [Compound 1313]	A (an IC50 ratio greater than or equal to 10 fold)	< 1
< 0.1	< 0.1	0.05 to 0.5	< 0.05	< 0.05	CCc1cc(NC(=O)C(=O)N2C[C@@H](C)CC[C@@H]2c2ccc3sc([C@@H](C)N(C)C)nc3c2)cnc1N (single isomer, unassigned) [Compound 1316]	A (an IC50 ratio greater than or equal to 10 fold)	< 1
> 1	> 1	> 0.5	> 0.5	> 0.5	Cc1cc(NC(=O)C(=O)N2C[C@@H](C)CC[C@@H]2c2ccc(CCN(C)C)cc2)cnc1N (single isomer, unassigned) [Compound 1322]	–	> 10
> 1	> 1	> 0.5	> 0.5	> 0.5	Cc1cc(NC(=O)C(=O)N2C[C@H](C)[C@H](OC(F)(F)F)C[C@H]2c2ccc(F)cc2)cnc1N (single isomer, unassigned) [Compound 1323]	–	> 10
> 1	> 1	> 0.5	> 0.5	> 0.5	Cc1cc(NC(=O)C(=O)N2C[C@@H](C)[C@H](OC(C)C)C[C@@H]2c2ccccc2)cnc1N (single isomer, unassigned) [Compound 1327]	–	1 to 10
< 0.1	< 0.1	0.05 to 0.5	< 0.05	< 0.05	Cc1cc(NC(=O)C(=O)N2C[C@@H](C)CC[C@@H]2c2ccc(N3CCN(C)CC3)cc2)cnc1N (single isomer, unassigned) [Compound 1328]	B (an IC50 ratio greater than or equal to 3 fold but lower than 10 fold)	< 1
> 1	0.1 to 1	> 0.5	> 0.5	> 0.5	C[C@H]1CC[C@H](c2ccc3sc(CCN(C)C)nc3c2)N(C(=O)C(=O)Nc2cnc(N)c(C3CC3)c2)C1 (single isomer, unassigned) [Compound 1331]	A (an IC50 ratio greater than or equal to 10 fold)	1 to 10
